Results on 28 molecules are retold here after patent US10166216B2 (Rigel Pharmaceuticals, Inc., priority 2006, dated 2019).

Axl, sequence (P30530 26-894): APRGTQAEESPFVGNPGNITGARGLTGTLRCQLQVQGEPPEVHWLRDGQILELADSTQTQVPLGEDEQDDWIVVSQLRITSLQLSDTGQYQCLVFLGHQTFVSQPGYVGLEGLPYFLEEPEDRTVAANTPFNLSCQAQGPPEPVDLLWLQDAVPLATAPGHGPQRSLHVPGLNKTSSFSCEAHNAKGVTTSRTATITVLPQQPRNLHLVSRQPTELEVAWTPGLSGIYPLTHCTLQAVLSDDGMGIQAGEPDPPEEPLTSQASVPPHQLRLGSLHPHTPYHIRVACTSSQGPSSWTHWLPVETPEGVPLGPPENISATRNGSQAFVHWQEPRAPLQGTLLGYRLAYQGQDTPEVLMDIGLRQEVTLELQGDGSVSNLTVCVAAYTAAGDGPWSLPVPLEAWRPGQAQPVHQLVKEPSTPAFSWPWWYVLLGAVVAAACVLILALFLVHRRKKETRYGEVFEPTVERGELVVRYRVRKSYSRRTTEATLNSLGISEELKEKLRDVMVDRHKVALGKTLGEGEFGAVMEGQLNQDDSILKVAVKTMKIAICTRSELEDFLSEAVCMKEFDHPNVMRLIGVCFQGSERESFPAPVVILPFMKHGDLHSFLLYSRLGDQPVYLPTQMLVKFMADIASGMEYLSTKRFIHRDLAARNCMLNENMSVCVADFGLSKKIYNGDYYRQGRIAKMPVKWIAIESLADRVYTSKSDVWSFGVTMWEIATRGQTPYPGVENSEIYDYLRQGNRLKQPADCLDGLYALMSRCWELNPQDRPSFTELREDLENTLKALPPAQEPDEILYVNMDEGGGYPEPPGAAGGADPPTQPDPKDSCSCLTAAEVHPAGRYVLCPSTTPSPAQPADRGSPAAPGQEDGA

In the experiment the target is Axl (Homo sapiens (Human), UniProt P30530). Briefly: Phospho-Akt in-cell Western assay (Axl-antibody cross-linking stimulation). The class given is cell-based. To be noted: inhibition of Axl activity, Hela cells, phospho-Akt readout; Table 1, formula (Ia1). The procedure:
The working solution: dilute the stock 1:20 with PBS immediately before use. • 10% SDS: working solution: 5% SDS (sodium dodecylsulfate), diluted in PBS Methods: Day 1:
A 96 well TC (tissue culture treated) plate was coated with 10 μg/mL poly-L-Lysine at 37° C. for 30 min, washed twice with PBS, and air-dried for 5 minutes before cells were added. Hela cells were seeded at 10,000 cells/well and the cells were starved in 100 μL starvation medium containing Axl/Fc for 24 hrs.
The cells were pre-treated with test compounds by adding 100 μL of 2× test compound to the starvation medium on the cells. The cells were incubated at 37° C. for 1 hr before stimulation.
The resulting mix was warmed to 37° C. 50 μL of 5× Axl 1st/2nd of antibody cluster was added to the cells and the cells were incubated at 37° C. for 5 min.
After 5 minutes stimulation, the plate was flicked to remove medium and the plate was tapped onto paper towels. Formaldehyde (4.0% in PBS, 100 μL) was added to fix the cells and the cells were incubated at ambient temperature for 20 min without shaking.
The cells were washed with a plate washer buffer to remove the formaldehyde solution. The plate was flicked to removed excess wash buffer and tapped onto paper towels. Quenching buffer (100 μL) was added to each well and the cells were incubated at ambient temperature for 20 minutes without shaking.
The cells were washed with a plate washer buffer to remove the quenching buffer. Blocking buffer (100 μL) was added and the cells were incubated at ambient temperature for at least an hour with gentle shaking.
The cells were washed with a plate washer buffer and diluted primary antibody (50 μL) was added to each well (blocking buffer was added to the negative control wells instead). The plates were incubated overnight at 4° C. with gentle shaking.
The wash buffer was removed, diluted secondary antibody (100 μL) was added, and the cells were incubated at ambient temperature for 1 hour with gentle shaking. During the incubation, the chemiluminescent reagent was brought to ambient temperature.
The secondary antibody was removed by washing the cells 1× with wash buffer, 1× with PBS by plate washer. The PBS was removed from the plate and the chemiluminescent reagent (80 μL: 40 μL A and 40 μL B) was added to each well at ambient temperature.
The resulting chemiluminescence was read with a Luminomitor within 10 minutes to minimize changes in signal intensity. […] The plate was tapped onto paper towels to remove excess liquid from wells and air-dried at ambient temperature for 5 minutes.
Crystal Violet working solution (60 μL) was added to each well and the cells were incubated at ambient temperature for 30 min. The crystal violet solution was removed, and the wells were rinsed with PBS, then washed 3× with PBS (200 μL) for 5 minutes each.
5% SDS solution (70 μL) was added to each well and the cells were incubated on a shaker for 30 min at ambient temperature.
This relative cell number was then used to normalize each luminescence reading. […]
Take `Nc1nc(Nc2ccc(OCCN3CCCC3)cc2)nn1-c1ccccc1F` [Compound 34, 1-(2-fluorophenyl)-N^3-(4-(2-(pyrrolidin-1-yl)ethoxy)phenyl)-1H-1,2,4-triazole-3,5-diamine]: the 50% inhibitory concentration (IC50) (as a rule, the point on the concentration scale where inhibition reaches its midpoint) is greater than 20 µM.

The molecule `CNc1cccc(-n2nc(Nc3ccc(OCCN4CCCCC4)cc3)nc2N)n1` [Compound 35, 1-(6-(methylamino)pyridin-2-yl)-N^3-(4-(2-(piperidin-1-yl)ethoxy)phenyl)-1H-1,2,4-triazole-3,5-diamine] registered an IC50 of 1 to 10 µM. In the case of `CN(C)c1cccc(-n2nc(Nc3ccc(OCCN4CCCCC4)cc3)nc2N)n1` [Compound 36, 1-(6-(dimethylamino)pyridin-2-yl)-N^3-(4-(2-(piperidin-1-yl)ethoxy)phenyl)-1H-1,2,4-triazole-3,5-diamine] it was 10 to 20 µM.

`Nc1nc(Nc2ccc(OCCN3CCCC3)cc2)nn1-c1nc(Cl)nc2ccccc12` [Compound 37, 1-(2-chloroquinazolin-4-yl)-N^3-(4-(2-(pyrrolidin-1-yl)ethoxy)phenyl)-1H-1,2,4-triazole-3,5-diamine] displayed a concentration for half-maximal inhibition (IC50) of less than 1 µM. With `Nc1nc(Nc2ccc(OCCN3CCCC3)cc2)nn1-c1nc(N2CCOCC2)nc2ccccc12` [Compound 38, 1-(2-morpholinoquinazolin-4-yl)-N^3-(4-(2-(pyrrolidin-1-yl)ethoxy)phenyl)-1H-1,2,4-triazole-3,5-diamine] the figure was 1 to 10 µM; with `Nc1nc(Nc2ccc(OCCN3CCCC3)c(Cl)c2)nn1-c1nc2ccccc2s1` [Compound 39, 1-(benzo[d]thiazol-2-yl)-N^3-(3-chloro-4-(2-(pyrrolidin-1-yl)ethoxy)phenyl)-1H-1,2,4-triazole-3,5-diamine], less than 1 µM; with `Cn1c(-n2nc(Nc3ccc(OCCN4CCCC4)c(Cl)c3)nc2N)nc2ccccc21` [Compound 40, N^3-(3-chloro-4-(2-(pyrrolidin-1-yl)ethoxy)phenyl)-1-(1-methyl-1H-benzo[d]imidazol-2-yl)-1H-1,2,4-triazole-3,5-diamine], less than 1 µM.

For `Nc1nc(Nc2ccc(OCCN3CCCC3)cc2)nn1-c1ccc2ccccc2n1` [Compound 41, N^3-(4-(2-(pyrrolidin-1-yl)ethoxy)phenyl)-1-(quinolin-2-yl)-1H-1,2,4-triazole-3,5-diamine], the IC50 was less than 1 µM. For `Cc1cc(O)nc(-n2nc(Nc3ccc(OCCN4CCCC4)cc3)nc2N)n1` [Compound 42, 2-(5-amino-3-(4-(2-(pyrrolidin-1-yl)ethoxy)phenylamino)-1H-1,2,4-triazol-1-yl)-6-methylpyrimidin-4-ol], the half-maximal inhibitory concentration (IC50) was greater than 20 µM. `COc1cc2nc(Cl)nc(-n3nc(Nc4ccc(OCCN5CCCC5)cc4)nc3N)c2cc1OC` [Compound 44, 1-(2-chloro-6,7-dimethoxyquinazolin-4-yl)-N^3-(4-(2-(pyrrolidin-1-yl)ethoxy)phenyl)-1H-1,2,4-triazole-3,5-diamine] gave a 50% inhibitory concentration (IC50) of less than 1 µM. With `COc1cc2ncnc(-n3nc(Nc4ccc(OCCN5CCCC5)cc4)nc3N)c2cc1OC` [Compound 45, 1-(6,7-dimethoxyquinazolin-4-yl)-N^3-(4-(2-(pyrrolidin-1-yl)ethoxy)phenyl)-1H-1,2,4-triazole-3,5-diamine] the figure was less than 1 µM; with `CC1CCC(C)N1CCOc1ccc(Nc2nc(N)n(-c3cnc4ccccc4n3)n2)cc1` (stereo not shown) [Compound 46, N^3-(4-(2-(2,5-dimethylpyrrolidin-1-yl)ethoxy)phenyl)-1-(quinoxalin-2-yl)-1H-1,2,4-triazole-3,5-diamine], less than 1 µM. Consider `Nc1nc(Nc2ccc(OCCN3CCCC3)cc2)nn1-c1ncccn1` [Compound 47, 1-(pyrimidin-2-yl)-N^3-(4-(2-(pyrrolidin-1-yl)ethoxy)phenyl)-1H-1,2,4-triazole-3,5-diamine], for which the half-maximal inhibitory concentration (IC50) was greater than 20 µM. Consider `Nc1nc(Nc2ccc(OCCN3CCCC3)cc2)nn1-c1nc(Cl)nc2c1CCC2` [Compound 49, 1-(2-chloro-6,7-dihydro-5H-cyclopenta[d]pyrimidin-4-yl)-N^3-(4-(2-(pyrrolidin-1-yl)ethoxy)phenyl)-1H-1,2,4-triazole-3,5-diamine], for which the IC50 was less than 1 µM. Molecule `Nc1nc(Nc2ccc(OCCN3CCCC3)cc2)nn1-c1nccc2ccccc12` [Compound 50, 1-(isoquinolin-1-yl)-N^3-(4-(2-(pyrrolidin-1-yl)ethoxy)phenyl)-1H-1,2,4-triazole-3,5-diamine] registered an IC50 of less than 1 µM. In the case of `Nc1nc(Nc2ccc(OCCN3CCCC3)cc2)nn1-c1ncnc2sccc12` [Compound 51, N^3-(4-(2-(pyrrolidin-1-yl)ethoxy)phenyl)-1-(thieno[2,3-d]pyrimidin-4-yl)-1H-1,2,4-triazole-3,5-diamine] it was less than 1 µM; in that of `Nc1nc(Nc2ccc(OCCN3CCCC3)cc2)nn1-c1ncnc2cc(-c3ccccc3)sc12` [Compound 52, 1-(6-phenylthieno[3,2-d]pyrimidin-4-yl)-N^3-(4-(2-(pyrrolidin-1-yl)ethoxy)phenyl)-1H-1,2,4-triaozle-3,5-diamine], less than 1 µM.

In turn, `Nc1nc(Nc2ccc(OCCN3CCCC3)cc2)nn1-c1nc(C(F)(F)F)nc2ccccc12` [Compound 53, N^3-(4-(2-(pyrrolidin-1-yl)ethoxy)phenyl)-1-(2-(trifluoromethyl)quinazolin-4-yl)-1H-1,2,4-triazole-3,5-diamine] returned an IC50 of less than 1 µM. With `Nc1nc(Nc2ccc(OCCN3CCCC3)cc2)nn1-c1ncnc2ccsc12` [Compound 54, N^3-(4-(2-(pyrrolidin-1-yl)ethoxy)phenyl)-1-(thieno[3,2-d]pyrimidin-4-yl)-1H-1,2,4-triazole-3,5-diamine] the figure was less than 1 µM; with `Nc1nc(Nc2ccc(OCCN3CCCC3)c(F)c2)nn1-c1cnc2ccccc2n1` [Compound 55, N^3-(3-fluoro-4-(2-(pyrrolidin-1-yl)ethoxy)phenyl)-1-(quinoxalin-2-yl)-1H-1,2,4-triazole-3,5-diamine], less than 1 µM; with `Nc1nc(Nc2ccc(OCCN3CCCC3)c(F)c2)nn1-c1nc2ccccc2s1` [Compound 56, 1-(benzo[d]thiazol-2-yl)-N^3-(3-fluoro-4-(2-(pyrrolidin-1-yl)ethoxy)phenyl)-1H-1,2,4-triazole-3,5-diamine], less than 1 µM. With `Nc1nc(Nc2ccc(OCCN3CCCC3)c(F)c2)nn1-c1ccccn1` [Compound 57, N^3-(3-fluoro-4-(2-(pyrrolidin-1-yl)ethoxy)phenyl)-1-(pyridin-2-yl)-1H-1,2,4-triazole-3,5-diamine] the figure was less than 1 µM. In the case of `Nc1nc(Nc2ccc(OCCN3CCCC3)c(F)c2)nn1-c1nccc2ccccc12` [Compound 58, N^3-(3-fluroo-4-(2-(pyrrolidin-1-yl)ethoxy)phenyl)-1-(isoquinolin-1-yl)-1H-1,2,4-triaozle-3,5-diamine] it was less than 1 µM.

Molecule `Nc1nc(Nc2ccc(OCCN3CCCC3)cc2)nn1-c1ncnc2sc3c(c12)CCCC3` [Compound 61, 1-(5,6,7,8-tetrahydrobenzo[4.,5]thieno[2,3-d]pyrimidin-4-yl)-N^3-(4-(2-(pyrrolidin-1-yl)ethoxy)phenyl)-1H-1,2,4-triazole-3,5-diamine] registered an IC50 of less than 1 µM. In the case of `Nc1nc(Nc2ccc(OCCN3CCCC3)c(Cl)c2)nn1-c1nccc2ccccc12` [Compound 62, N^3-(3-chloro-4-(2-(pyrrolidin-1-yl)ethoxy)phenyl)-1-(isoquinolin-1-yl)-1H-1,2,4-triazole-3,5-diamine] it was less than 1 µM. In turn, `Nc1nc(Nc2ccc(OCCN3CCCC3)cc2)nn1-c1nccc2ccsc12` [Compound 64, N^3-(4-(2-(pyrrolidin-1-yl)ethoxy)phenyl)-1-(thieno[2,3-c]pyridin-7-yl)-1H-1,2,4-triazole-3,5-diamine] displayed an IC50 of less than 1 µM. Regarding `Nc1nc(Nc2ccc(OCCN3CCCC3)cc2)nn1-c1ncnc2sc3c(c12)CCC3` [Compound 66, 1-(6,7-dihydro-5H-cyclopenta[4,5]thieno[2,3-d]pyrimidin-4-yl)-N^3-(4-(2-(pyrrolidin-1-yl)ethoxy)phenyl)-1H-1,2,4-triazole-3,5-diamine], the IC50 is less than 1 µM. The molecule `Nc1nc(Nc2ccc(OCCN3CCCC3)c(Cl)c2)nn1-c1ncnc2sc3c(c12)CCCC3` [Compound 67, N^3-(3-chloro-4-(2-(pyrrolidin-1-yl)ethoxy)phenyl)-1-(5,6,7,8-tetrahydrobenzo[4,5]thieno[2,3-d]pyrimidin-4-yl)-1H-1,2,4-triazole-3,5-diamine] gave an IC50 of less than 1 µM.
